This note sets out measurements from ChEMBL document CHEMBL1154698, “Discovery of 3-aryl-4-isoxazolecarboxamides as TGR5 receptor agonists” (J Med Chem, 2009).

Converted amounts (≈) assume the structure as drawn. The source made the active and inactive calls.

Data set [1] can be described thus: Aqueous solubility of the compound. The format is physicochemical. The settings on record: buffer.
Data set [2] can be described thus: Permeability in artificial membrane assay. In kind it is ADME, cell membranes.
Data set [3] in a line: Oral bioavailability in CD1 rat at 30 mg/kg. In kind it is ADME, organism-based. The settings on record: in vivo.
Data set [4] can be described thus: Volume of distribution at steady state in CD1 rat at 3 mg/kg, iv or 30 mg/kg, po. Particulars: in vivo, read-out: Vdss. The format is ADME, organism-based.
The nature of data set [5]: Clearance in CD1 rat at 3 mg/kg, iv or 30 mg/kg, po. The format is ADME, organism-based. The settings on record: in vivo.
Data set [6] in a line: Half life in CD1 rat at 3 mg/kg, iv or 30 mg/kg, po. The settings on record: in vivo. In kind it is ADME, organism-based.
Data set [7] in a line: Half life in dog at 3 mg/kg, iv or 30 mg/kg, po. In kind it is ADME, organism-based, Canis lupus familiaris. Particulars: in vivo.
A short description of data set [8]: Clearance in dog at 3 mg/kg, iv or 30 mg/kg, po. In kind it is ADME, organism-based, Canis lupus familiaris. The settings on record: in vivo.
A short description of data set [9]: Volume of distribution at steady state in dog at 3 mg/kg, iv or 30 mg/kg, po. In kind it is ADME, organism-based, Canis lupus familiaris. Particulars: in vivo, read-out: Vdss.
The nature of data set [10]: Oral bioavailability in dog at 30 mg/kg. In kind it is ADME, organism-based, Canis lupus familiaris. Particulars: in vivo.
The nature of data set [11]: Intrinsic clearance in rat hepatocytes. The format is ADME, cell-based, Liver, Hepatocyte.
A short description of data set [12]: Intrinsic clearance in dog hepatocytes. In kind it is ADME, cell-based, Canis lupus familiaris, Liver, Hepatocyte.
Data set [13] relates to U2OS. Description: Increase in MRE/CRE-driven gene expression in human U2OS cells by luciferase reporter gene assay. The format is functional, cell-based.
Data set [14] deals with T1, G-protein coupled bile acid receptor 1 (Rattus norvegicus, UniProt Q80T02).
T1 sequence (Q80T02 whole entry): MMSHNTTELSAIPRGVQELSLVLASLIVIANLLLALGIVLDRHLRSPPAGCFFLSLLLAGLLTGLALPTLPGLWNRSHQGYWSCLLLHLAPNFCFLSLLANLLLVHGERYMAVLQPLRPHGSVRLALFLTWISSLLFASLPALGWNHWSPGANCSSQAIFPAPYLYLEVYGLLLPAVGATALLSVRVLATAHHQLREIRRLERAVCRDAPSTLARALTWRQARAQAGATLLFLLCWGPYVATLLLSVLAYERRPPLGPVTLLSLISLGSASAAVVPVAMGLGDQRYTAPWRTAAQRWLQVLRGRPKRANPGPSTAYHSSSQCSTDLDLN
Description: Agonist activity at rat TGR5 expressed in melanophores assessed as melanosome dispersion by melanophore assay. In kind it is functional.

Data set [15] in a line: Agonist activity at canine TGR5 expressed in melanophores assessed as melanosome dispersion by melanophore assay. The format is functional, Canis lupus familiaris.
The test system of data set [16] is Melanophore. Description: Induction of melanosome dispersion in melanophores. In kind it is functional, cell-based. The settings on record: Xenopus laevis.
Data set [17] can be described thus: Half life in CD1 rat at 2.5 mg/kg, iv or 5 mg/kg, po. The format is ADME, organism-based. Particulars: in vivo.
The nature of data set [18]: Clearance in CD1 rat at 2.5 mg/kg, iv or 5 mg/kg, po. In kind it is ADME, organism-based. The settings on record: in vivo.
Data set [19] is described as follows: Volume of distribution at steady state in CD1 rat at 2.5 mg/kg, iv or 5 mg/kg, po. The format is ADME, organism-based. Particulars: in vivo, read-out: Vdss.
A short description of data set [20]: Oral bioavailability in CD1 rat 5 mg/kg. The format is ADME, organism-based. The settings on record: in vivo.
Data set [21] deals with Cytochrome P450 2C9 (Homo sapiens, UniProt P11712). Nature of the data set: Inhibition of CYP2C9. The format is ADME.
Data set [22] concerns the target Cytochrome P450 2D6 (Homo sapiens, UniProt P10635). Nature of the data set: Inhibition of CYP2D6. The format is ADME.
Data set [23] concerns Monocyte. Nature of the data set: Inhibition of LPS-stimulated TNFalpha secretion in human primary monocytes. The format is functional, cell-based.
For data set [24], the system named is Canis familiaris. Nature of the data set: Decrease in portal vein glucose levels in intrajejeunally dosed conscious Beagle dog at 1 mg.kg co-administered with glucose challenge. The format is functional, organism-based. Particulars: Canis lupus familiaris.
Data set [25] deals with Canis familiaris. Nature of the data set: Increase in GLP1 secretion in hepatic portal vein of intrajejeunally dosed conscious Beagle dog at 1 mg.kg co-administered with glucose challenge. The settings on record: Canis lupus familiaris. The format is functional, organism-based.

Sequence of Cytochrome P450 2D6 (P10635 whole entry): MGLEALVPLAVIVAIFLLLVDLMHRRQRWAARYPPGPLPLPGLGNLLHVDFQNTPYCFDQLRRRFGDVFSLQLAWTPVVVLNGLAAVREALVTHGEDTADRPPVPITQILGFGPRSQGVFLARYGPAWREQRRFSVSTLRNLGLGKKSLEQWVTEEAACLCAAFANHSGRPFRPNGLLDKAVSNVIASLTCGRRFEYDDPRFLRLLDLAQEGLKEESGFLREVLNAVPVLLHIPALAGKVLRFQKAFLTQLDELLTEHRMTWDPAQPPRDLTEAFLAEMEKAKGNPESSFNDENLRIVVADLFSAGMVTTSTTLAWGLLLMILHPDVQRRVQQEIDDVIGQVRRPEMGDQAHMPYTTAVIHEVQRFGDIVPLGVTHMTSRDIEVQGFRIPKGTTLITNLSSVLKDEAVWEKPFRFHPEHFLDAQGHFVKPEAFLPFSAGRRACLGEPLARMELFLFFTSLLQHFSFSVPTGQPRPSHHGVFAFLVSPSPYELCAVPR
Sequence of Cytochrome P450 2C9 (P11712 whole entry): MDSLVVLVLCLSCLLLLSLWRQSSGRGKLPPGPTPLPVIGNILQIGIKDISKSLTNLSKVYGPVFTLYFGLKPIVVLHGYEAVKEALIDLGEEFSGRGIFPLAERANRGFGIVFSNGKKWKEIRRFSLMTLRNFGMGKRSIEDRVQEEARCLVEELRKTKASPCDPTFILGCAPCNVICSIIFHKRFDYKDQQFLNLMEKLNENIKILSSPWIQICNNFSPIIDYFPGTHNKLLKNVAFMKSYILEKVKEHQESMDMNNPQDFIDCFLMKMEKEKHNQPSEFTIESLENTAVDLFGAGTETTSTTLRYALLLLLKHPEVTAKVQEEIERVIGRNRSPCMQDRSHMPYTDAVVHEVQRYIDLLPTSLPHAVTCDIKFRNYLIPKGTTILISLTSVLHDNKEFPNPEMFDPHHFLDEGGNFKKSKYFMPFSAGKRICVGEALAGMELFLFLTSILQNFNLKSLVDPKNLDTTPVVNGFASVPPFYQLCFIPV

For `Cc1ccc(N(C)C(=O)c2c(-c3ccccc3Cl)noc2C)cc1Cl`, in data set [1], the concentration in solution (solubility) was 112 µM (≈ 42 µg/mL). Moreover, the permeability in [2] was determined as 257 nanometer/sec. In addition, the bioavailability (in general, dose-corrected exposure relative to a reference, in per cent) in data set [3] is less than 1%; in [10], 0.3%. For the same compound, the values for the Vd in data set [4] and in data set [9] were 40 L/kg and 8.6 L/kg, respectively. For the same compound, the clearance came to 148 mL/min/kg in data set [5] and 39 mL/min/kg in data set [8]. The half-life (commonly the time needed for the level to fall by half in the phase considered) is 522 min in data set [6] and 312 min in data set [7]. For the same compound, the CLint in data set [11] was found to be 54 mL/min/g; in [12], 111 mL/min/g.
Turning to `CCN(C(=O)c1c(-c2ccccc2Cl)noc1C)c1cccc(Cl)c1`, the solubility – broadly, how much of the substance goes into solution per volume – in data set [1] turned out to be 134 µM (≈ 50.3 µg/mL). The compound further returned a permeability in data set [2] of 310 nanometer/sec.
For `Cc1onc(-c2ccccc2Cl)c1C(=O)N(C)c1ccc(Cl)cc1`, the EC50 (usually the concentration needed to bring the measured effect to its halfway point) in data set [13] was more than 50.1 µM; in data set [14], 2000 nM; in data set [16], 20 µM. This compound yielded a solubility in data set [1] of 246 µM (≈ 88.9 µg/mL). In data set [2], this compound returned a permeability of 422 nanometer/sec. The pEC50 (usually −log10 of the EC50, conventionally taken in molar units) in [15] is listed as 7.2. The half-life in [17] was 396 min. The clearance in [18] was 85 mL/min/kg. For the same compound, the Vd in data set [19] stood at 7.1 L/kg. The compound also had a bioavailability in data set [20] of 1%. For the same compound, the CLint in [11] amounted to 48 mL/min/g; in data set [12], 90 mL/min/g. The IC50 – broadly, the concentration that gives 50% inhibition – is more than 10 µM in data set [21], more than 10 µM in data set [22] and 158 nM in data set [23]. Besides, the outcome in [24] and in data set [25] was Active.
